In ChEMBL document CHEMBL1649554, “Specific therapeutic schemes of omeprazole affect the orientation of Helicobacter pylori” (Antimicrob Agents Chemother, 2009):
Activity calls are given as the source filed them. The calls are words filed in the database; no cut-off is given here.

What was measured:
[1] = system: Helicobacter pylori; test: (§1) Antibacterial activity against Helicobacter pylori SS1 infected in Mongolian gerbils assessed as decrease in bacterial density in mucus in 0 to 15 um above the Juxtamucosal layer at 0.25 mg, ip administered as single dose for 5 days measured after 90 mins post last dose; assay type: functional; set-up: scale not given: the % may be the effect or the level left
[2] = system: Helicobacter pylori; test: as §1, with “as” for “as decrease in”, “two doses in 24 hrs dosing interval” for “single dose for 5 days”, “dose (reference value: 4560+/-400 bacteria per nl of mucus)” for “dose”; assay type: functional
[3] = system: Helicobacter pylori; test: (§2) Antibacterial activity against Helicobacter pylori SS1 infected in Mongolian gerbils assessed as bacterial density in mucus in 0 to 15 um above the Juxtamucosal layer at 0.25 mg, ip followed by second dose administered as solvent in 24 hrs dosing interval measured after 90 mins post last dose (reference value: 4560+/-400 bacteria per nl of mucus); assay type: functional
[4] = system: Helicobacter pylori; test: as §2, with “ip” for “ip followed by second dose”, “two doses” for “solvent”, “8” for “24”; assay type: functional
[5] = system: Helicobacter pylori; test: (§3) Antibacterial activity against Helicobacter pylori SS1 infected in Mongolian gerbils assessed as bacterial density in mucus in 0 to 15 um above the Juxtamucosal layer at 0.25 mg, ip administered as two doses of solvent in 24 hrs dosing interval measured after 90 mins post last dose (reference value: 4560+/-400 bacteria per nl of mucus); assay type: functional
[6] = system: Helicobacter pylori; test: as §3, with “20 uM,” for “0.25 mg,”, “single dose through dialysis” for “two doses of solvent in 24 hrs dosing interval”; assay type: functional
[7] = system: Helicobacter pylori; test: Antibacterial activity against Helicobacter pylori SS1 infected in Mongolian gerbils assessed as bacterial disorientation in 15 to 25 um above the Juxtamucosal layer at 0.25 mg, ip administered as two doses in 24 hrs dosing interval measured after 90 mins post last dose; assay type: functional, organism-based
[8] = system: Helicobacter pylori; test: Antibacterial activity against Helicobacter pylori SS1 infected in Mongolian gerbils assessed as bacterial disorientation in central mucus layer at 0.25 mg, ip administered as two doses in 24 hrs dosing interval measured after 90 mins post last dose; assay type: functional, organism-based
[9] = system: Helicobacter pylori; test: Antibacterial activity against Helicobacter pylori SS1 infected in Mongolian gerbils assessed as bacterial disorientation in luminal mucus layer at 0.25 mg, ip administered as two doses in 24 hrs dosing interval measured after 90 mins post last dose; assay type: functional, organism-based
[10] = Cmax in Mongolian gerbils plasma; assay type: ADME, Meriones unguiculatus; conditions: gerbil
[11] = system: Helicobacter pylori; test: Antibacterial activity against Helicobacter pylori SS1 infected in Mongolian gerbils assessed as bacterial disorientation in 0 to 15 um above the Juxtamucosal layer at 0.25 mg, ip administered as two doses in 24 hrs dosing interval measured after 90 mins post last dose; assay type: functional, organism-based
[12] = system: Helicobacter pylori; test: Antibacterial activity against Helicobacter pylori SS1 infected in Mongolian gerbils assessed as bacterial disorientation in luminal mucus layer at 0.25 mg, ip administered as two doses in 8 hrs dosing interval measured after 90 mins post last dose; assay type: functional, organism-based
[13] = system: Helicobacter pylori; test: Antibacterial activity against Helicobacter pylori SS1 infected in Mongolian gerbils assessed as bacterial disorientation in central mucus layer at 0.25 mg, ip administered as two doses in 8 hrs dosing interval measured after 90 mins post last dose; assay type: functional, organism-based
[14] = system: Helicobacter pylori; test: Antibacterial activity against Helicobacter pylori SS1 infected in Mongolian gerbils assessed as bacterial disorientation in 15 to 25 um above the Juxtamucosal layer at 0.25 mg, ip administered as two doses in 8 hrs dosing interval measured after 90 mins post last dose; assay type: functional, organism-based
[15] = system: Helicobacter pylori; test: Antibacterial activity against Helicobacter pylori SS1 infected in Mongolian gerbils assessed as bacterial disorientation in 0 to 15 um above the Juxtamucosal layer at 0.25 mg, ip administered as two doses in 8 hrs dosing interval measured after 90 mins post last dose; assay type: functional, organism-based
[16] = system: Helicobacter pylori; test: Antibacterial activity against Helicobacter pylori SS1 infected in Mongolian gerbils assessed as bacterial disorientation in luminal mucus layer at 0.25 mg, ip followed by second dose administered as solvent in 24 hrs dosing interval measured after 90 mins post last dose; assay type: functional, organism-based
[17] = system: Helicobacter pylori; test: Antibacterial activity against Helicobacter pylori SS1 infected in Mongolian gerbils assessed as bacterial disorientation in central mucus layer at 0.25 mg, ip followed by second dose administered as solvent in 24 hrs dosing interval measured after 90 mins post last dose; assay type: functional, organism-based
[18] = system: Helicobacter pylori; test: Antibacterial activity against Helicobacter pylori SS1 infected in Mongolian gerbils assessed as bacterial disorientation in 15 to 25 um above the Juxtamucosal layer at 0.25 mg, ip followed by second dose administered as solvent in 24 hrs dosing interval measured after 90 mins post last dose; assay type: functional, organism-based
[19] = system: Helicobacter pylori; test: Antibacterial activity against Helicobacter pylori SS1 infected in Mongolian gerbils assessed as bacterial disorientation in 0 to 15 um above the Juxtamucosal layer at 0.25 mg, ip followed by second dose administered as solvent in 24 hrs dosing interval measured after 90 mins post last dose; assay type: functional, organism-based
[20] = system: Helicobacter pylori; test: Antibacterial activity against Helicobacter pylori SS1 infected in Mongolian gerbils assessed as bacterial disorientation in luminal mucus layer at 0.25 mg, ip administered as two doses of solvent measured after 90 mins post last dose (reference value: 4560+/-400 bacteria per nl of mucus); assay type: functional, organism-based
[21] = system: Helicobacter pylori; test: Antibacterial activity against Helicobacter pylori SS1 infected in Mongolian gerbils assessed as bacterial disorientation in central layer at 0.25 mg, ip administered as two doses of solvent measured after 90 mins post last dose (reference value: 4560+/-400 bacteria per nl of mucus); assay type: functional, organism-based
[22] = system: Helicobacter pylori; test: as §3, with “disorientation” for “density”, “15” for “mucus in 0”, “25” for “15”, “solvent” for “solvent in 24 hrs dosing interval”; assay type: functional, organism-based
[23] = system: Helicobacter pylori; test: as §3, with “disorientation” for “density in mucus”, “solvent” for “solvent in 24 hrs dosing interval”; assay type: functional, organism-based
[24] = system: Helicobacter pylori; test: Antibacterial activity against Helicobacter pylori SS1 infected in Mongolian gerbils assessed as bacterial disorientation in luminal mucus layer at 20 uM, ip administered as single dose through dialysis measured after 90 mins post last dose; assay type: functional, organism-based
[25] = system: Helicobacter pylori; test: Antibacterial activity against Helicobacter pylori SS1 infected in Mongolian gerbils assessed as bacterial disorientation in central mucus layer at 20 uM, ip administered as single dose through dialysis measured after 90 mins post last dose; assay type: functional, organism-based
[26] = system: Helicobacter pylori; test: Antibacterial activity against Helicobacter pylori SS1 infected in Mongolian gerbils assessed as bacterial disorientation in 15 to 25 um above the Juxtamucosal layer at 20 uM, ip administered as single dose through dialysis measured after 90 mins post last dose; assay type: functional, organism-based
[27] = system: Helicobacter pylori; test: Antibacterial activity against Helicobacter pylori SS1 infected in Mongolian gerbils assessed as bacterial disorientation in 0 to 15 um above the Juxtamucosal layer at 20 uM, ip administered as single dose through dialysis measured after 90 mins post last dose; assay type: functional, organism-based
[28] = system: Helicobacter pylori; test: Antibacterial activity against Helicobacter pylori SS1 infected in Mongolian gerbils assessed as bacterial density in mucus in luminal mucus layer at 100 uM, ip administered as single dose through dialysis measured after 90 mins post last dose; assay type: functional

COc1ccc2[nH]c([S+]([O-])Cc3ncc(C)c(OC)c3C)nc2c1 (stereo not drawn) [OMEPRAZOLE]
Activity [1]: 5%
Activity [2]: 3310 nL⁻¹
Activity [3]: 4790 nL⁻¹
Activity [4]: 4170 nL⁻¹
Activity [5]: 5740 nL⁻¹
Activity [6]: 5050 nL⁻¹
Activity [7]: Active
Activity [8]: inactive
Activity [9]: inactive
Cmax [10]: 10 µM
Activity [11]: Active
Activity [12]: inactive
Activity [13]: inactive
Activity [14]: inactive
Activity [15]: Active
Activity [16]: inactive
Activity [17]: inactive
Activity [18]: inactive
Activity [19]: Active
Activity [20]: inactive
Activity [21]: inactive
Activity [22]: inactive
Activity [23]: Active
Activity [24]: inactive
Activity [25]: inactive
Activity [26]: inactive
Activity [27]: Active
Activity [28]: 60 nL⁻¹
